Experimental data from PubChem BioAssay AID256 (DTP/NCI, 2004).
Inconclusive results and toxic doses are left out.

Test system: CD2F1 mice, L1210 leukemia ip, survival T/C
Assay: NCI In Vivo Anticancer Drug Screen. Data for tumor model L1210 Leukemia (intraperitoneal) in CD2F1 (CDF1) mice
Settings: higher = longer survival
Outline: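 Antitumor effect is scored in animals hosting a serially transplanted tumor. Values compare compound-dosed animals against vehicle-only controls as a simple quotient.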

COc1cc([C@@H]2c3cc4c(cc3[C@@H](OC3OC5COC(C)OC5C(O)C3O)[C@H]3COC(=O)[C@H]23)OCO4)cc(OC)c1O (stereo partly drawn)
T/C (endpoint: mean survival time, dose: 0.5 mg/kg/injection, schedule: Q03HX024 (ip), vehicle: saline): 165 % of control | T/C (endpoint: mean survival time, dose: 1.0 mg/kg/injection, schedule: Q03HX024 (ip), vehicle: saline): 360 % of control | T/C (endpoint: mean survival time, dose: 2.0 mg/kg/injection, schedule: Q01DX009 (ip), vehicle: saline): 151 % of control | T/C (endpoint: mean survival time, dose: 2.0 mg/kg/injection, schedule: Q03HX024 (ip), vehicle: saline): 124 % of control | T/C (endpoint: mean survival time, dose: 4.0 mg/kg/injection, schedule: Q01DX009 (ip), vehicle: saline): 246 % of control | T/C (endpoint: mean survival time, dose: 8.0 mg/kg/injection, schedule: Q01DX009 (ip), vehicle: saline): 111 % of control | T/C (endpoint: mean survival time, dose: 8.0 mg/kg/injection, schedule: Q04DX003 (ip), vehicle: saline): 181 % of control | T/C (endpoint: mean survival time, dose: 16.0 mg/kg/injection, schedule: Q01DX009 (ip), vehicle: saline): 87 % of control | T/C (endpoint: mean survival time, dose: 16.0 mg/kg/injection, schedule: Q04DX003 (ip), vehicle: saline): 289 % of control | T/C (endpoint: mean survival time, dose: 32.0 mg/kg/injection, schedule: Q04DX003 (ip), vehicle: saline): 542 % of control | T/C (endpoint: median survival time, dose: 1.0 mg/kg/injection, schedule: Q03HX008 (ip), vehicle: other): 162 % of control | T/C (endpoint: median survival time, dose: 1.0 mg/kg/injection, schedule: Q03HX016 (ip), vehicle: other): 175 % of control | T/C (endpoint: median survival time, dose: 1.0 mg/kg/injection, schedule: Q03HX024 (ip), vehicle: other): 218 % of control | T/C (endpoint: median survival time, dose: 2.0 mg/kg/injection, schedule: Q01DX009 (ip), vehicle: other): 175 % of control | T/C (endpoint: median survival time, dose: 2.0 mg/kg/injection, schedule: Q01DX009 (ip), vehicle: saline): 152 % of control | T/C (endpoint: median survival time, dose: 2.0 mg/kg/injection, schedule: Q01DX009 (sc), vehicle: other): 150 % of control | T/C (endpoint: median survival time, dose: 2.0 mg/kg/injection, schedule: Q03HX008 (ip), vehicle: other): 175 % of control | T/C (endpoint: median survival time, dose: 2.0 mg/kg/injection, schedule: Q03HX016 (ip), vehicle: other): 212 % of control | T/C (endpoint: median survival time, dose: 2.0 mg/kg/injection, schedule: Q03HX024 (ip), vehicle: other): 206 % of control | T/C (endpoint: median survival time, dose: 4.0 mg/kg/injection, schedule: Q01DX009 (ip), vehicle: other): 218 % of control | T/C (endpoint: median survival time, dose: 4.0 mg/kg/injection, schedule: Q01DX009 (ip), vehicle: saline): 195 % of control | T/C (endpoint: median survival time, dose: 4.0 mg/kg/injection, schedule: Q01DX009 (oral), vehicle: Klucel (hydroxypropylcellulose) (HPC)): 105 % of control | T/C (endpoint: median survival time, dose: 4.0 mg/kg/injection, schedule: Q01DX009 (sc), vehicle: other): 168 % of control | T/C (endpoint: median survival time, dose: 4.0 mg/kg/injection, schedule: Q03HX008 (ip), vehicle: other): 181 % of control | T/C (endpoint: median survival time, dose: 4.0 mg/kg/injection, schedule: Q03HX008 (oral), vehicle: Klucel (hydroxypropylcellulose) (HPC)): 111 % of control | T/C (endpoint: median survival time, dose: 4.0 mg/kg/injection, schedule: Q03HX016 (ip), vehicle: other): 187 % of control | T/C (endpoint: median survival time, dose: 4.0 mg/kg/injection, schedule: Q03HX016 (oral), vehicle: Klucel (hydroxypropylcellulose) (HPC)): 100 % of control | T/C (endpoint: median survival time, dose: 4.0 mg/kg/injection, schedule: Q03HX024 (ip), vehicle: other): 118 % of control | T/C (endpoint: median survival time, dose: 4.0 mg/kg/injection, schedule: Q03HX024 (oral), vehicle: Klucel (hydroxypropylcellulose) (HPC)): 88 % of control | T/C (endpoint: median survival time, dose: 8.0 mg/kg/injection, schedule: Q01DX001 (ip), vehicle: other): 162 % of control | T/C (endpoint: median survival time, dose: 8.0 mg/kg/injection, schedule: Q01DX001 (sc), vehicle: other): 112 % of control | T/C (endpoint: median survival time, dose: 8.0 mg/kg/injection, schedule: Q01DX009 (ip), vehicle: saline): 220 % of control | T/C (endpoint: median survival time, dose: 8.0 mg/kg/injection, schedule: Q01DX009 (oral), vehicle: Klucel (hydroxypropylcellulose) (HPC)): 116 % of control | T/C (endpoint: median survival time, dose: 8.0 mg/kg/injection, schedule: Q01DX009 (sc), vehicle: other): 118 % of control | T/C (endpoint: median survival time, dose: 8.0 mg/kg/injection, schedule: Q03HX008 (ip), vehicle: other): 87 % of control | T/C (endpoint: median survival time, dose: 8.0 mg/kg/injection, schedule: Q03HX008 (oral), vehicle: Klucel (hydroxypropylcellulose) (HPC)): 122 % of control | T/C (endpoint: median survival time, dose: 8.0 mg/kg/injection, schedule: Q03HX016 (oral), vehicle: Klucel (hydroxypropylcellulose) (HPC)): 100 % of control | T/C (endpoint: median survival time, dose: 8.0 mg/kg/injection, schedule: Q03HX024 (ip), vehicle: other): 112 % of control | T/C (endpoint: median survival time, dose: 8.0 mg/kg/injection, schedule: Q03HX024 (oral), vehicle: Klucel (hydroxypropylcellulose) (HPC)): 88 % of control | T/C (endpoint: median survival time, dose: 8.0 mg/kg/injection, schedule: Q04DX003 (ip), vehicle: other): 193 % of control | T/C (endpoint: median survival time, dose: 8.0 mg/kg/injection, schedule: Q08DX002 (ip), vehicle: other): 168 % of control | T/C (endpoint: median survival time, dose: 16.0 mg/kg/injection, schedule: Q01DX001 (ip), vehicle: other): 162 % of control | T/C (endpoint: median survival time, dose: 16.0 mg/kg/injection, schedule: Q01DX009 (ip), vehicle: other): 100 % of control | T/C (endpoint: median survival time, dose: 16.0 mg/kg/injection, schedule: Q01DX009 (oral), vehicle: Klucel (hydroxypropylcellulose) (HPC)): 122 % of control | T/C (endpoint: median survival time, dose: 16.0 mg/kg/injection, schedule: Q01DX009 (sc), vehicle: other): 93 % of control | T/C (endpoint: median survival time, dose: 16.0 mg/kg/injection, schedule: Q03HX008 (oral), vehicle: Klucel (hydroxypropylcellulose) (HPC)): 111 % of control | T/C (endpoint: median survival time, dose: 16.0 mg/kg/injection, schedule: Q03HX016 (oral), vehicle: Klucel (hydroxypropylcellulose) (HPC)): 111 % of control | T/C (endpoint: median survival time, dose: 16.0 mg/kg/injection, schedule: Q03HX024 (oral), vehicle: Klucel (hydroxypropylcellulose) (HPC)): 94 % of control
